The values below come from patent publication US6159953A, “Anti-malarial composition and method of use” (Catholic University of America, priority 1992, dated 2000).

Structures are written as SMILES. Like-named read-outs stand apart in the source and are kept apart here.

The subject of data set [1] is HL-60 human promyelocytic leukemia cells. Kind of data set: Toxicity to cultured HL-60 cells, number of viable cells. It is filed as cell-based. From the text: 2. Effects of orotate analogues on cell viability and the ability to synthesize nucleic acids from radioactive precursors, and the rescuing effects of normal pyrimidine bases or nucleosides or amino acid derivatives such as histidinol, can be tested in human-derived tissue culture cell lines. Human HT-1080 human sarcoma cells [Rusheed, S., et al., Cancer, 33:1027-30 (1974)], human diploid IMR-90 cells [Nichols, W. W., et al., Science, 196:60-3 (1977)], human cervical […] HeLa S3 cells [Puck, T. T., et al., J. Exp. Med., 103:273-84 (1956)], HL-60 human myeloid leukemia cells [Collins, S. J., et al., Nature, 270:347-9 (1977)], and mouse leukemia L-1210 cells [Moore, G. E., J. Nat. […] The growth medium most suitable for each cell line can be determined by reference to the publications cited above: briefly, HT-1080 cells are maintained in Eagle's Minimal Essential Medium (EMEM) supplemented with 5% fetal bovine serum (FBS) and 2 mM L-glutamine; IMR-90 cells are grown in EMEM supplemented with 10% FBS, 10 mM Hepes buffer, 0.21% NaHCO3, and 2 mM L-glutamine. […]
Toxicity of pyrimidine analogues to cultured human cells is determined as follows. […] Thereafter, the number of cells in each well is determined. […] Cells that grow in suspension (e.g., HL-60 and L-1210 cells) are transferred to centrifuge tubes, pelleted at low speed, washed, and the viability determined as above. […]

Data set [2] in a line: Host toxicity in P. yoelii-infected mice (diarrhea, weight loss, tolerance). Format: in vivo, Swiss white mice. Here is the method: FIG. 6 illustrates the weight changes in mice receiving 5 mg/kg of 5-fluoro-orotate without (Δ) or with (.tangle-solidup.) uridine. The pyrimidine analogue was administered on days 3 to 6. The pyrimidine nucleoside was given to mice in experiment 2 on days 3 to 9. Data points represent mean weights of mice that remained alive during the course of experiments 1 and 2 (see FIG. 5C). Error bars represent standard deviations from the mean.
A second in vivo test system can be used to determine if repeated administration of the pyrimidine analogue would have safe anti-malarial activity. In this test system, groups of animals are infected with malaria parasites. At a time when blood parasitemia is reached, the animals are injected with saline alone (control) or with various concentrations of one or more pyrimidine analogues alone or together with one or more rescuing pyrimidine bases or nucleosides at a single concentration, at intervals, over a period of several days. In order to determine the prophylactic effectiveness of the rescuing pyrimidine base or nucleoside, the animals are pretreated with such a base or nucleoside prior to the administration of the pyrimidine analogue. Anti-malarial activity of the treatments is estimated by determining blood parasitemia on the animals at appropriate times. The safety of the treatments is estimated by monitoring animals for weight loss and diarrhea, as these are early symptoms of pyrimidine analogue toxicity [Houghton, J. A., et al., Cancer Res., 39:2406-13 (1979)].
Swiss white mice (25-30 g) were divided into groups of five. On day 0, each mouse was infected by intraperitoneal injection of 10^5 erythrocytic forms of P. yoelii. Starting on day 3, when the blood parasitemia had reached between 5 and 12%, the mice were injected intraperitoneally every 4 hours for three consecutive days with 200 μl of various formulations. In experiment 1, three groups of mice received 0.2, 1, or 5 mg/kg of 5-fluoro-orotate per injection, respectively. An accompanying control group received saline. In experiment 2, three groups of mice received 0.2, 1, or 5 mg/kg of 5-fluoro-orotate plus 800 mg/kg of uridine in a 200 μl saline formulation. An accompanying control group received 800 mg/kg of uridine alone. In experiment 2, mice were pretreated with one injection of 800 mg/kg of uridine two hours before receiving the first injection of 5-fluoro-orotate. Additionally, even though treatment with the pyrimidine analogue stopped on day 6, these mice continued to receive 1500 mg/kg of uridine, three times a day, for three additional days (i.e., up to day 9).

With `O=C(O)c1[nH]c(=O)[nH]c(=O)c1F` [5-fluoro-orotate], the IC50 – broadly, the concentration at which inhibition is half-maximal – worked out at 4500 nM in data set [1] (HL-60, with 1 mM uridine, read-out: IC50 With 1 mM Uridine) and 900 nM in data set [1] (HL-60, without uridine, read-out: IC50 Without Uridine). For the same compound, in data set [2] (5 mg/kg every 4 hours), the “tolerance of highest dose” value is given as “tolerated only when uridine was administered in combination with 5-fluoro-orotate”. In addition, in data set [2] (experiment 1, 1 and 5 mg/kg, no uridine), the “mortality at higher doses” value is “dose-dependent increase in mortality”. In data set [2] (experiment 1, higher doses, no uridine), the “diarrhea in surviving mice” value is “showed signs of diarrhea”. In data set [2] (experiment 2, 5 mg/kg with uridine (FIG. 6)), the weight loss entry is listed as “no weight loss”. Moreover, in data set [2] (experiment 2, with uridine), the diarrhea result was “no mouse had diarrhea”.
